Assay results taken from US20110086886A2, “INSECTICIDAL ISOXAZOLINES” (Bayer CropScience AG, priority 2006, published 2011).

Legend:
[1] = tested on: Myzus persicas resistant to organic phosphorous agents and carbamate agents; experiment: Test for Myzus persicas resistant to organic phosphorous agents and carbamate agents; format: in vivo; conditions: effective component concentration of 500 ppm; spray on egg plant; 24 hours after spraying
Experimental: (§1) In order to obtain a preparation of a proper active compound, 1 part by weight of an active compound was mixed with the stated amounts of solvent and emulsifier and the mixture was diluted to a specified concentration with water.
About 200 head per plantlet of cultivated Myzus persicas resistant to phosphorous agents and carbamate agents were inoculated on an egg plant. The aqueous dilution containing the above prepared active compound having a specified concentration was sprayed on the egg plant in a sufficient amount by a spray gun one day after the inoculation. The egg plant was allowed to stand in a 28° C. green house, to calculate the insecticidal ratio 24 hours after the solution was sprayed. In this case, the test was made twice repeatedly.

Aulacophora femoralis = experiment: Test for Aulacophora femoralis (spray test); format: in vivo; conditions: effective component concentration of 500 ppm; 2nd-instar, dipped cucumber leaves; after 7 days
Experimental: as §1
The leaves of cucumbers were dipped in the aqueous solution diluted to a specified concentration with water. After the chemical solution was dried in air, these leaves were placed in a plastic cup, in which sterilized black soil was placed. 5 Aulacophora femoralis of the 2nd-instar were set free in the soil, to examine the number of dead insects after 7 days, thereby calculating the insecticidal ratio of the chemical solution.

Spodoptera litura larvae = experiment: Test for Spodoptera litura larvae (leaf dip); format: in vivo; conditions: effective component concentration of 500 ppm, 3rd-instar larvae on dipped sweet potato leaves, after 7 days; for pest or weed control at 500 ppm: foliar, 168 h, read-out: insecticidal ratio
Experimental: as §1
The leaves of sweat potatoes were dipped in the test solution diluted to a specified concentration with water. After these leaves were dried in air to remove the chemical solution, they were placed in a Petri dish of 9 cm in diameter, in which 10 Spodoptera litura larvae of the 3rd-instar were set free. The Petri dish was placed in a thermostatic chamber kept at 25° C. and the leaves of sweat potatoes were added after 2 days and 4 days, to examine the number of dead larvae after 7 days, thereby calculating the insecticidal ratio of the chemical solution.
In this test, an average of the results in two Petri dishes in one section was calculated.

[2] = tested on: Ctenocephalides felis, strain "Georgi"; experiment: Test for cat fleas / oral uptake; format: in vivo; conditions: in Bos taurus, 48 h, read-out: kill (mortality)
Experimental: 20 mg of the active compound are dissolved in 1 ml dimethylsulphoxide To prepare a suitable formulation (e.g. 100 ppm), the active compound solution is diluted to the respective desired concentration with cattle blood (e.g. 1 part by weight active compound solution with 199 parts by weight cattle blood).
20 unfed adult fleas (Ctenocephalides felis, strain “Georgi”) are placed into a chamber (Ø 5 cm) whose top and bottom are closed with gauze. A metal cylinder whose underside is covered with parafilm is placed onto the chamber. The cylinder contains the blood/active compound formulation which can be taken up by the fleas through the parafilm membrane. Whereas the blood is warmed to 37° C., the temperature in the area of the flea chambers is adjusted to room temperature.
After the desired time the mortality in % is determined. Here 100% means that all fleas were killed; 0% means that no fleas were killed.

Lucilia cuprina larvae = experiment: Test for Lucilia cuprina larvae; format: in vivo; conditions: 48 h, read-out: larval mortality
Experimental: 20 mg of active compound are dissolved in 1 ml of dimethyl sulphoxide. To prepare a suitable formulation (e.g. 100 ppm), the active compound solution is diluted to the respective desired concentration with water (e.g. 1 part by weight active compound solution with 199 parts by weight water).
Approximately 20 Lucilia cuprina larvae are introduced into a test tube which contains approx. 1 cm^3 horse meat and 0.5 ml of the active compound preparation to be tested. After 48 hours, the efficacy of the active compound preparation is determined as % larval mortality. 0%: no larvae were killed, 100%: all larvae were killed.

FC(F)(F)C1(c2cc(Cl)cc(Cl)c2)CC(c2ccc(-n3cccc3)cc2)=NO1 (stereo not shown)
melting point: 206 to 208 °C

FC(F)(F)c1nnnn1-c1ccc(C2=NOC(c3cc(Cl)cc(Cl)c3)(C(F)(F)F)C2)cc1 (stereo not shown)
melting point: 147 to 151 °C

N#Cc1cc(C2=NOC(c3cc(C(F)(F)F)cc(C(F)(F)F)c3)(C(F)(F)F)C2)ccc1-n1cncn1 (racemic) [Compound 135]
insecticidal ratio [1]: 100% | insecticidal ratio (Aulacophora femoralis): 100% | insecticidal ratio (Spodoptera litura larvae): 100%

N#Cc1cc(C2=NOC(c3cc(Cl)cc(Cl)c3)(C(F)(F)F)C2)ccc1-n1cc(Cl)cn1 (stereo not shown) [Compound 17]
mortality at 100 ppm [2]: > 80% | mortality at 100 ppm (Lucilia cuprina larvae): > 95% | pest or weed control at 500 ppm (Spodoptera litura larvae): 100%

N#Cc1cc(C2=NOC(c3cc(Cl)cc(Cl)c3)(C(F)(F)F)C2)ccc1-n1cc([N+](=O)[O-])cn1 (stereo not shown) [Compound 21]
insecticidal ratio (Aulacophora femoralis): 100% | insecticidal ratio (Spodoptera litura larvae): 100%

O=[N+]([O-])c1cc(C2=NOC(c3cc(Cl)cc(Cl)c3)(C(F)(F)F)C2)ccc1-n1cc(F)cn1 (stereo not shown) [Compound 25]
insecticidal ratio (Aulacophora femoralis): 100% | insecticidal ratio (Spodoptera litura larvae): 100%

N#Cc1cc(C2=NOC(c3cccc(C(F)(F)F)c3)(C(F)(F)F)C2)ccc1-n1cc([N+](=O)[O-])cn1 (stereo not shown) [Compound 38]
insecticidal ratio [1]: 100% | insecticidal ratio (Aulacophora femoralis): 100% | insecticidal ratio (Spodoptera litura larvae): 100%

FC(F)(F)C1(c2cccc(Cl)c2)CC(c2ccc(-n3cncn3)cc2)=NO1 (stereo not shown) [Compound 86]
insecticidal ratio (Aulacophora femoralis): 100% | insecticidal ratio (Spodoptera litura larvae): 100%

N#Cc1cc(C2=NOC(c3cccc(Cl)c3)(C(F)(F)F)C2)ccc1-n1cncn1 (stereo not shown) [Compound 89]
insecticidal ratio (Aulacophora femoralis): 100% | insecticidal ratio (Spodoptera litura larvae): 100%

N#Cc1cc(C2=NOC(c3cc(Cl)cc(Cl)c3)(C(F)(F)F)C2)ccc1-n1cncn1 (stereo not shown) [Compound 101, 5-[5-(3,5-dichlorophenyl)-5-(trifluoromethyl)-4,5-dihydroisoxazol-3-yl)-2-(1H-1,2,4-triazol-1-yl)benzonitrile]
insecticidal ratio [1]: 100% | insecticidal ratio (Aulacophora femoralis): 100% | pest or weed control at 500 ppm (Spodoptera litura larvae): 100%

O=[N+]([O-])c1cc(C2=NOC(c3cc(Cl)cc(Cl)c3)(C(F)(F)F)C2)ccc1-n1cncn1 (stereo not shown) [Compound 104, 1-{4-[5-[3,5-dichlorophenyl]-5-(trifluoromethyl)-4,5-dihydroisoxazol-3-yl]-2-nitrophenyl}-1H-1,2,4-triazole]
insecticidal ratio (Aulacophora femoralis): 100% | pest or weed control at 500 ppm (Spodoptera litura larvae): 100%

CC(=O)Nc1cc(C2=NOC(c3cc(Cl)cc(Cl)c3)(C(F)(F)F)C2)ccc1-n1cncn1 (stereo not shown) [Compound 106, N-{5-[5-(3,5-dichlorophenyl)-5-(trifluoromethyl)-4,5-dihydroisoxazol-3-yl]-2-(1H-1,2,4-triazol-1-yl)phenyl}acetamide]
insecticidal ratio (Aulacophora femoralis): 100% | pest or weed control at 500 ppm (Spodoptera litura larvae): 100%

FC(F)(F)C1(c2cc(Cl)cc(Cl)c2)CC(c2ccc(-n3cnnn3)cc2)=NO1 (stereo not shown) [Compound 148, 1-{4-[5-(3,5-dichlorophenyl)-5-(trifluoromethyl)-4,5-dihydroisoxazol-3-yl]phenyl}-1H-tetrazole]
insecticidal ratio (Aulacophora femoralis): 100% | pest or weed control at 500 ppm (Spodoptera litura larvae): 100%

FC(F)(F)C1(c2cc(Cl)cc(Cl)c2)CC(c2ccc(-n3cnnn3)c(Br)c2)=NO1 (stereo not shown) [Compound 151]
insecticidal ratio (Aulacophora femoralis): 100% | insecticidal ratio (Spodoptera litura larvae): 100%

N#Cc1cc(C2=NOC(c3cc(Cl)cc(Cl)c3)(C(F)(F)F)C2)ccc1-n1cnnn1 (stereo not shown) [Compound 153]
insecticidal ratio [1]: 100% | insecticidal ratio (Aulacophora femoralis): 100% | insecticidal ratio (Spodoptera litura larvae): 100%

O=[N+]([O-])c1cc(C2=NOC(c3cc(Cl)cc(Cl)c3)(C(F)(F)F)C2)ccc1-n1cnnn1 (stereo not shown) [Compound 154]
insecticidal ratio (Aulacophora femoralis): 100% | insecticidal ratio (Spodoptera litura larvae): 100%

FC(F)(F)c1cccc(C2(C(F)(F)F)CC(c3ccc(-n4cnnn4)cc3)=NO2)c1 (stereo not shown) [Compound 157]
insecticidal ratio (Aulacophora femoralis): 100% | insecticidal ratio (Spodoptera litura larvae): 100%

N#Cc1cc(C2=NOC(c3cccc(C(F)(F)F)c3)(C(F)(F)F)C2)ccc1-n1cnnn1 (stereo not shown) [Compound 160]
insecticidal ratio (Aulacophora femoralis): 100% | insecticidal ratio (Spodoptera litura larvae): 100%

O=[N+]([O-])c1cc(C2=NOC(c3cccc(C(F)(F)F)c3)(C(F)(F)F)C2)ccc1-n1cnnn1 (stereo not shown) [Compound 161]
insecticidal ratio (Aulacophora femoralis): 100% | insecticidal ratio (Spodoptera litura larvae): 100%

N#Cc1cc(C2=NOC(c3cc(C(F)(F)F)cc(C(F)(F)F)c3)(C(F)(F)F)C2)ccc1-n1cnnn1 (stereo not shown) [Compound 165]
insecticidal ratio (Aulacophora femoralis): 100% | insecticidal ratio (Spodoptera litura larvae): 100%

O=[N+]([O-])c1cc(C2=NOC(c3cc(C(F)(F)F)cc(C(F)(F)F)c3)(C(F)(F)F)C2)ccc1-n1cnnn1 (stereo not shown) [Compound 166, 1-(4-{5-[3,5-bis(trifluoromethyl)phenyl]-5-(trifluoromethyl)-4,5-dihydroisoxazol-3-yl}-2-nitrophenyl)-1H-tetrazole]
insecticidal ratio (Aulacophora femoralis): 100% | pest or weed control at 500 ppm (Spodoptera litura larvae): 100%

N#Cc1cc(C2=NOC(c3cc(Cl)cc(Cl)c3)(C(F)(F)F)C2)ccc1-n1ncnn1 (stereo not shown) [Compound 171]
insecticidal ratio (Aulacophora femoralis): 100% | insecticidal ratio (Spodoptera litura larvae): 100%

N#Cc1cc(C2=NOC(c3cc(Cl)cc(Cl)c3)(C(F)(F)F)C2)ccc1-n1cc(N)cn1 (stereo not shown) [Compound 181]
insecticidal ratio (Aulacophora femoralis): 100% | insecticidal ratio (Spodoptera litura larvae): 100%
